“Also recorded” adds a separate entry of the source.
What was measured:
[1] = Clinical safety trial of hyaluronan aerosol in COPD patients: safety endpoints; type: in vivo, human
Description: (§1) With this background, efforts continue to develop hyaluronan aerosol as a potential therapy for chronic obstructive pulmonary disease (COPD) related to alpha-1 antitrypsin deficiency (AATD) and not related to AATD. As part of that development this clinical safety trial was conducted in 11 COPD patients, 8 of whom received hyaluronan and 3 received placebo. The study protocol was conducted under IND number 70299. The primary aim of the study was to establish safety and to evaluate biomarker activity with respect to body and lung elastin degradation.
Eleven patients were recruited from 2 Centers: 9 patients from Research Associates in Tucson Ariz. and 2 patients from St. Luke's-Roosevelt Hospital Pulmonary Disease Center in New York. All patients fulfilled the diagnostic criteria of COPD with GOLD grades 2 and 3 with moderate airway obstruction (FEV1 above 40% of predicted) and at least a ten pack-year history of cigarette smoking. No patients were actively smoking at the time of recruitment and smoking cessation had occurred over one year prior to the study in all patients. Six patients were male […]. All were Caucasian. Three patients received placebo. Eight patients received hyaluronan CTX-100.
(§2) Each patient self-administered 0.01% hyaluronan from a vialed volume of 3 ml by aerosol from a compressor-delivered Pari nebulizer, morning and night for 14 days. The primary endpoints to assess safety were adverse events, oxygen saturation, spirometry, lung volumes, physical examination, vital signs, electrocardiogram and laboratory evaluations (CBC, serum chemistries and urinalysis). Additionally, desmosine and isodesmosine concentrations in sputum, plasma and urine were measured to assess a possible effect on elastin degradation (44, 45)

elastin degradation = test: Desmosine and isodesmosine concentrations in sputum, plasma and urine of COPD patients in the clinical trial; type: in vivo, human; details: 2 weeks of hyaluronan aerosol; for Levels of desmosine and isodesmosine in sputum: all 6 patients who provided sputum samples
Description: as §1, §2
Sputum samples collected from patients with emphysema and other inflammatory lung diseases are chemically degraded to separate the component amino acids of elastic fibers and other proteins. This procedure may involve hydrolyzing the sample with an acid such as HCl or a base such as NaOH, according to procedures well known to the art. The resulting hydrolysate is then measured for total elastin-specific amino acids, desmosine and isodesmosine, using a variety of procedures, including liquid chromatography or immunoassay, ultraviolet spectroscopy, fluorescence spectroscopy, mass spectrometry, or other spectroscopic techniques well-known to the art.
Desmosine and isodesmosine content of the sputum sample is then normalized to one or more parameters, such as total protein, albumin, or free amino acids, according to procedures well known to the art. The final value is expressed as total desmosine/isodesmosine per unit volume, protein, albumin, amino acids or other relevant parameter. Results obtained from the same patient over time may be used to determine variations in the amount of lung elastic fiber injury.

elastic fiber breakdown = test: Illustrative examples of titrating aerosolized hyaluronan by sputum desmosine and isodesmosine level; type: in vivo, human
Description: Examples of the use of the invention to titrate treatment with aerosolized hyaluronan are given below:
1) A patient with pulmonary emphysema is found to have an abnormally high level of sputum desmosine and isodesmosine (20 nanograms/gram protein compared to a normal level of less than 5 nanograms/g protein), and begins treatment with a dose of 0.1% hyaluronan that is inhaled for 20 minutes once daily in the morning. After 1 month, the sputum desmosine and isodesmosine level is measured and found to be 10 nanograms/g of protein in the sputum, which is more than twice the upper limit of normal. The patient is then switched to a twice daily inhalation for 20 minutes in the morning and evening. Two weeks later, the patient's sputum desmosine and isodesmosine level has fallen to 1 nanogram/g of protein, which is within the normal range. Their treatment is therefore left unchanged and sputum desmosine and isodesmsoine levels are measured at monthly intervals to ensure that the drug remains effective in preventing elastic fiber breakdown.
2) A patient with a history of smoking is tested for sputum desmosine and isodesmosine levels. They are found to have a mildly elevated level of 6 nanograms/g protein, and is placed on low dose hyaluronan, involving a single daily 20 minute inhalation of 0.05% hyaluronan. Two weeks later, their sputum desmosine and isodesmosine level is 1 nanogram/g protein, which is within the normal range. Based on this finding, their treatment is lowered to a 20 minute inhalation of hyaluronan every other day. Two weeks later, their sputum desmosine and isodesmsoine level has risen to 6 nanograms/g protein, which is above the upper limit of normal. Their treatment regimen is therefore returned to a 20 minute inhalation every day. Two weeks later, their sputum desmosine and isodesmosine level has fallen to 1 nanogram/g protein. Their treatment needs no further modification, and sputum desmosine and isodesmosine levels are measured at monthly intervals to ensure that the drug remains effective in preventing elastic fiber breakdown.

[2] = tested on: emphysema induced by elastase enzymes; details: animals; aerosol; cited from earlier work
elastin fibers = details: in vitro; cited from earlier work
[3] = tested on: pulmonary emphysema induced by tobacco smoke; details: mice exposed to tobacco smoke over a 6-month period; cited from earlier work
[4] = therapy in cystic fibrosis; cited from earlier work
[5] = tested on: lung inflammation in a cystic fibrosis model; details: cystic fibrosis model in mice; cited from earlier work
[6] = listed as aerosolized hyaluronan

## hyaluronan
[1]; 0.01% hyaluronan, 3 ml by aerosol, morning and night for 14 days
  Adverse events: mild to moderate
[1]; 2 weeks of administration
  Effect on EKG: no significant effect
  Effect on routine laboratory procedures: no significant effect
  Effect on spirometric indices: no significant effect
Elastin degradation
  Blood levels of desmosine and isodesmosine: significant reduction
  Urine levels of desmosine and isodesmosine: significant reduction
  Levels of desmosine and isodesmosine in sputum: statistically significant reduction; also recorded: Reductions
Elastin degradation; [6]
  Levels of desmosine and isodesmosine in sputum: statistically significant decline
  Blood levels of desmosine and isodesmosine: statistically significant decline
  Urine levels of desmosine and isodesmosine: statistically significant decline
Elastic fiber breakdown; patient with history of smoking, start 6, single daily 20 minute inhalation of 0.05% hyaluronan, two weeks later
  Sputum desmosine and isodesmosine level: 1 nanogram/g protein
Elastic fiber breakdown; patient with pulmonary emphysema, start 20, 0.1% hyaluronan inhaled 20 minutes once daily, after 1 month
  Sputum desmosine and isodesmosine level: 10 nanograms/g of protein
Elastic fiber breakdown; same patient, 0.1% hyaluronan, twice daily 20 minute inhalation, two weeks later
  Sputum desmosine and isodesmosine level: 1 nanogram/g of protein
Elastic fiber breakdown; same patient, 20 minute inhalation every other day, two weeks later
  Sputum desmosine and isodesmosine level: 6 nanograms/g protein
Elastic fiber breakdown; same patient, returned to 20 minute inhalation every day, two weeks later
  Sputum desmosine and isodesmosine level: 1 nanogram/g protein
[2]
  Severity of emphysema induced by elastase enzymes: decrease the severity of emphysema induced by elastase enzymes
Elastin fibers
  Elastase degradation of elastin fibers: block elastase degradation of elastin fibers in vitro
[3]
  Pulmonary emphysema induced by tobacco smoke: decrease the pulmonary emphysema induced in mice exposed to tobacco smoke
[4]
  Tolerability of hypertonic saline: improve tolerability of hypertonic saline
[5]
  Lung inflammation: reduce lung inflammation in a cystic fibrosis model in mice
